We go through two compounds from patent US20050059745A1, “Antiviral therapy” (priority 1999, published 2005).

Where only a bound is given, the exact number is not on record here.

Data set [1] has as its system HIV-1. Conditions: Table 3. On the procedure:
MDM, and PBMC, were incubated with HIV at a multiplicity of infection of 0.02, and 0.006 or 0.001, respectively. After two hours cells are washed to remove unbound virus and cultured for 4 to 7 days in different concentrations of the drug under investigation. On day 4, 5 and 7, 0.01 ml of supernatant is removed from the culture and virus in culture supernatant is inactivated in a final concentration of 0.05% empigen (Calbiochem-Novabiochem Co., La Jolla, Calif.). The presence of HIV-1 in the inactivated supernatant is monitored by checking for the p24-core antigen using the enzyme-linked immunosorbent assay (ELISA) system of John Moore.

In a further data set the test system is HIV-1BaL. The data set can be described thus: HIV-1BaL replication in acutely infected PHA-stimulated PBMC, p24 ELISA. Format: cell-based. (In general: An ELISA detects its analyte on a solid surface through an enzyme-linked reagent.)
The test system of data set [2] is HIV-1. Conditions: PBMC, FIG. 4.
Procedure: (§1) FIG. 4—Peripheral blood mononuclear cells (PBMC) were isolated from heparinized blood from HIV-1-, HIV-2-, and hepatitis B-seronegative donors and obtained on Ficoll-Hypaque density gradients. Cells were washed twice, stimulated with 5 mg/ml phytohemagglutinin (PHA), and cultured in RPMI-1640 medium supplemented with 5 mM Hepes, 19 mM sodium bicarbonate, 10 mg/mL gentamycin, and 10% heat-inactivated fetal calf serum at a concentration of 2×10^6 cells/ml. After 3 days of incubation stimulated PBMC were recovered from the flasks and infected for 2 hours with (a) HIV-1AT at a multiplicity of infection of 0.001, (b) HIV-1BaL at a multiplicity of infection of 0.006 and (c) HIV-1BaL or HIV-1AT at a multiplicity of infection of 0.01 or 0.001, respectively. HIV-infected and mock-infected PBMC were washed twice to remove unbound virus and cultured for 4 to 7 days in different concentrations of APHS. After 4 and 5 days of incubation samples of culture supernatant were collected and p24-core antigen production was quantified using the enzyme-linked immunosorbent assay (ELISA) system of John Moore.
The next data set deals with PBMC. The experiment in a line: PBMC viability, WST-1 cytotoxicity assay. The data set is classed as cell-based, human. To be noted: 5 days incubation. On the procedure: FIG. 5—PBMC were obtained and stimulated as described in legend of FIG. 4. […] After a 5 days incubation period, cellular viability was assessed by WST-1 cytotoxicity assay where viable cells convert WST-1 into a coloured formazan dye that can be measured spectrophotometrically.
Cell viability is assessed with WST-1 assay. Cells are incubated with the tetrazolium salt WST-1 (4-[3-(4-lodophenyl)-2-(4-nitrophenyl)-2H-5-tetrazolio]-1,3-benzene disulfonate) for 2 hours at 37° C. During this time viable cells convert WST-1 into water-soluble formazan dyes. The OD of the supernatant is measured at 550 nm.
For orientation: Tetrazolium assays rely on reduction of a dye to a coloured formazan, in cell work by metabolically active cells.

The nature of data set [3]: Toxicity determinations of anti-viral compounds (Table 3). Format: cell-based.
In data set [4] the test system is HIV-1Ba-L. The data set can be described thus: HIV-1Ba-L replication in acutely infected monocyte-derived macrophages, p24 ELISA. The data set is classed as cell-based. Conditions: 30 μM APHS, acutely infected MDM, moi 0.02. On the procedure: Concentrations above 0.3 μM APHS inhibit p24 production. 30 μM APHS inhibits HIV-1 replication by 88%.
Cells are washed twice and monocytes are purified by countercurrent centrifugal elutriation.

Data set [5] deals with HIV-1Ba-L. The data set can be described thus: HIV-1 production of chronically infected PBMC, p24 ELISA. Format: cell-based. To be noted: APHS added 5 days after infection, 2 days incubation (FIG. 6B). The protocol:
(A, B) Peripheral blood mononuclear cells (PBMC) were isolated from heparinized blood from HIV-1-, HIV-2-, and hepatitis B- seronegative donors and obtained on Ficoll-Hypaque density gradients. Cells were washed twice, stimulated with 5 μg/ml phytohemagglutinin (PHA), and cultured in RPMI-1640 medium supplemented with 5 mM Hepes, 19 mM sodium bicarbonate, 10 μg/mL gentamycin, and 10% heat-inactivated fetal calf serum (PBMC culture medium) at a concentration of 2×10^6 cells/ml. After 3 days of incubation stimulated PBMC were recovered from the flasks and infected for 2 hours with HIV-1Ba-L at a multiplicity of infection of 0.01. Afterwards, HIV-infected and mock-infected PBMC were washed twice to remove unbound virus. (A) PBMC were cultured at a density of 6×10^5 cells/well with different concentrations of APHS and after 5 days of incubation samples of culture supernatant were collected. (B) PBMC were cultured in suspension at a concentration of 2×10^6 cells/ml in Teflon flasks in PBMC culture medium. […] After 2 days of incubation samples of culture supernatant were collected. p24-core antigen production was quantified using the enzyme-linked immunosorbent assay (ELISA) system of John Moore. […]

Data set [6] concerns monocyte-derived macrophages (MDM). The data set can be described thus: MDM viability, MTT cytotoxicity assay. The data set is classed as cell-based, human. Conditions: 4 day incubation. The protocol: FIG. 3—Monocyte-derived macrophages (MDM) were obtained like described in legend of FIG. 2. […] After a 4 day incubation period, cellular viability was assessed by MTT cytotoxicity assay where viable cells convert MTT into a colored formazan dye that can be measured spectrophotometrically.
Cell viability is assessed by the MTT assay. In short, cells are incubated with MTT 3-(4,5-dimethylthiazol-2-yl)-2,5-diphenyltetrazollumbromide (Sigma) for 2 hours at 37° C. During this time viable cells convert MTT into […] formazan dyes. Afterwards crystals are solubilized with a solution containing isopropanol. The OD of the supernatant is measured at 550 nm.
Monocyte-derived macrophages (MDM) were obtained like described above. […] After a 4 days incubation period cellular viability was assessed by MTT cytotoxicity assay where viable cells convert MTT into a colored formazan dye that can be measured spectrophotometrically.

For data set [7], the system named is HIV-1Ba-L. The experiment in a line: HIV-1 production by chronically infected MDM, p24 ELISA. To be noted: APHS added 5 days after infection, 2 days incubation (FIG. 6D). The data set is classed as cell-based.
Data set [8] has as its system drug-resistant HIV strains. To be noted: drug-resistant vs sensitive strain.

Procedure for HIV-1BaL: as §1
Peripheral blood mononuclear cell (PBMC) fractions are isolated from heparinised blood from HIV-1-, HIV-2- and hepatitis B- seronegative donors (Blood-bank, Utrecht, the Netherlands) by Ficoll-Isopaque gradient separation. Cells are washed twice, stimulated with 4 μg/ml phytohemagglutinin (PHA), and cultured in RPMI-1640 medium supplemented with 5 mM Hepes, 19 mM sodium bicarbonate, 10 μg/ml gentamycin, and 10% heat-inactivated fetal calf serum at a concentration of 1×10^6 cells/ml.
(A, B) Peripheral blood mononuclear cells (PBMC) were isolated from heparinized blood from HIV-1-, HIV-2-, and hepatitis B- seronegative donors and obtained on Ficoll-Hypaque density gradients. […] After 2 days of incubation samples of culture supernatant were collected. p24-core antigen production was quantified using the enzyme-linked immunosorbent assay (ELISA) system of John Moore.

Broadly, the IC50 is the concentration needed to halve the response being measured. Consider `CCCCC#CCSc1ccccc1OC(C)=O` [APHS, o-(acetoxy-phenyl)hept-2-ynyl sulfide], for which the 50% inhibitory concentration (IC50) in the data set on HIV-1 [1] worked out at 10 µM. In the data set with HIV-1BaL (1 μM APHS, PBMC, lower infectivity (FIG. 4c)), the “inhibition of HIV-1BaL production” value amounted to 50%. Besides, the “inhibition of HIV-1Ba-L replication” value in the data set on HIV-1BaL (30 μM APHS, acutely infected PBMC, moi 0.01 (FIG. 6A)) worked out at 100%. Also, the “inhibition of HIV-1BaL replication” value with HIV-1BaL (PBMC, FIG. 4) is on record as 100%. Also, the “APHS concentrations that inhibit HIV-1Ba-L replication” value with HIV-1BaL (acutely infected PBMC, moi 0.01, 5 days (FIG. 6A)) is given as “above 3 μM”. In addition, the “APHS concentrations that inhibit HIV-1 production” value in the data set on HIV-1 [2] is given as “above 1 μM”. In the data set with PBMC, the “concentrations found to reduce viability (WST-1)” value is ≥ 100 µM. In [3], this compound registered a not toxic at of 30 µM. For the same compound, the “inhibition of HIV-1 replication” value in the data set on HIV-1Ba-L [4] was determined as 88%. The “inhibition of HIV-1 production of chronically infected PBMCs” value with HIV-1Ba-L [5] was “does not inhibit”. Further, in data set [6], the “cytotoxicity (MTT)” value is listed as “None of the tested concentrations of APHS was found to be cytotoxic”. Further, in the data set with HIV-1Ba-L [7], the “inhibition of HIV-1 production by chronically infected MDM” value is recorded as “does not inhibit”. Also, in data set [8], the “inhibitory activity against drug resistant strains relative to a sensitive strain” value is given as “two- to four-fold higher”.
`CCCCC#CCSc1ccccc1OCCCC` [BPHS] returned an IC50 in the data set with HIV-1 [1] of 40 µM. In [3], this compound came in with a not toxic at of 30 µM.
